The values below come from the Kinase Knowledgebase extract (Sharma et al. 2016).

Structures are written as SMILES.

What is called IC50 is the point on the concentration scale where inhibition reaches its midpoint. Low values mean greater potency, high ones weaker potency.

This assay has as its target MAPK14 (human) (UniProt Q16539). Put plainly: Inhibition of MAPK14 Kinase Activity.

Sequence of MAPK14 (human) (Q16539 whole entry, looked up): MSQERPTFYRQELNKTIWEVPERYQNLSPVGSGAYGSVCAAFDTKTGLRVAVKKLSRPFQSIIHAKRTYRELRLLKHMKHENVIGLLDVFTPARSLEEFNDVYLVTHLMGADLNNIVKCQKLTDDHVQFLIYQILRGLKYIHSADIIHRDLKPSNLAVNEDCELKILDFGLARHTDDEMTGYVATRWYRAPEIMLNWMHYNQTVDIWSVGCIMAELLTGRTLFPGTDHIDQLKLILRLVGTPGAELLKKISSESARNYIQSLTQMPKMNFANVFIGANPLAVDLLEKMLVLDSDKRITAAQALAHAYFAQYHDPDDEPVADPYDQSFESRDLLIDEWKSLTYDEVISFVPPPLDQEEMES

In the case of `CC(C)NC(=O)c1csc(-c2oc(CNC(=O)Cc3ccc(O)c(F)c3)nc2-c2ccc(F)cc2)n1`, the IC50 is ≤ 1000 nM.

For `Cc1cc(C(=O)N2CCN(Cc3nc(-c4ccc(F)cc4)c(-c4nc(C(=O)NC(C)C)cs4)o3)CC2)n[nH]1`, the IC50 is ≤ 1000 nM.

With `Cc1nc(-c2ccc(F)cc2)c(-c2nc(C(=O)NCc3ccc(C)c(C)c3)cs2)s1`, the IC50 is ≤ 1000 nM.

`CCC(CO)NC(=O)c1csc(-c2sc(C)nc2-c2ccc(F)cc2)n1` (stereo not drawn): the IC50 is ≤ 1000 nM.

On to `CC(C)NC(=O)c1csc(-c2oc(CN3CCN(C(=O)c4cscn4)CC3)nc2-c2ccc(F)cc2)n1`, for which the IC50 is ≤ 1000 nM.

As to `CCCC(C)NC(=O)c1csc(-c2c(-c3ccc(F)cc3)n[nH]c2C2CCNCC2)n1` (stereo not drawn), the IC50 is ≤ 1000 nM.

Regarding `Cc1nc(-c2ccc(F)cc2)c(-c2nc(C(=O)NCc3ccc(F)cc3)cs2)s1`, the IC50 was ≤ 1000 nM.

With `CC(C)NC(=O)c1csc(-c2c(-c3ccc(F)cc3)n[nH]c2C2CCNCC2)n1`, the IC50 is ≤ 1000 nM.

Take `CC(C)NC(=O)c1csc(-c2oc(CN3CCN(C(=O)Cc4ccc(O)c(F)c4)CC3)nc2-c2ccc(F)cc2)n1`: the IC50 is ≤ 1000 nM.

Regarding `Cc1onc(-c2ccc(Cl)cc2)c1-c1ccn(C(=O)NC(C)C)n1`, the concentration for half-maximal inhibition (IC50) was ≤ 1000 nM.

Turning to `COc1ccc(C(=O)N2CCN(Cc3nc(-c4ccc(F)cc4)c(-c4nc(C(=O)NC(C)C)cs4)o3)CC2)c(OC)c1`, the IC50 was ≤ 1000 nM.

Turning to `CC(C)NC(=O)c1csc(-c2oc(CNC(=O)c3cc(F)c(F)cc3[N+](=O)[O-])nc2-c2ccc(F)cc2)n1`, the IC50 was ≤ 1000 nM.

Turning to `CC(C)NC(=O)c1csc(-c2c(-c3ccc(F)cc3)n[nH]c2C2CCN(C(=O)C(F)(F)F)CC2)n1`, the IC50 was ≤ 1000 nM.

In the case of `COc1cccc(CNC(=O)c2csc(-c3sc(C)nc3-c3ccc(F)cc3)n2)c1`, the IC50 was ≤ 1000 nM.

For the compound `CC(C)NC(=O)c1csc(-c2oc(CNC(=O)c3ccccc3[N+](=O)[O-])nc2-c2ccc(F)cc2)n1`, the IC50 was ≤ 1000 nM.

For `CC(C)Cc1ccc(C(C)C(=O)N2CCN(Cc3nc(-c4ccc(F)cc4)c(-c4nc(C(=O)NC(C)C)cs4)o3)CC2)cc1` (stereo not drawn), the half-maximal inhibitory concentration (IC50) is ≤ 1000 nM.

`Cc1nc(-c2ccc(F)cc2)c(-c2nc(C(=O)NCCc3ccccc3Cl)cs2)s1`: the half-maximal inhibitory concentration (IC50) was ≤ 1000 nM.

As to `CC(C)NC(=O)c1csc(-c2oc(CNC(=O)c3cc([N+](=O)[O-])ccc3Cl)nc2-c2ccc(F)cc2)n1`, the IC50 is ≤ 1000 nM.

Regarding `CC(C)NC(=O)c1csc(-c2oc(CNC(=O)C(O)CCl)nc2-c2ccc(F)cc2)n1` (stereo not drawn), the IC50 is ≤ 1000 nM.

On to `CC(C)NC(=O)c1csc(-c2c(-c3ccc(F)cc3)n[nH]c2C2CCN(C(=O)C=O)CC2)n1`, for which the IC50 was ≤ 1000 nM.

In the case of `CC(C)NC(=O)c1csc(-c2c(-c3ccc(F)cc3)n[nH]c2C2CCN(C(=O)c3ccccc3C=O)CC2)n1`, the IC50 is ≤ 1000 nM.

In the case of `CC(C)NC(=O)c1csc(-c2c(-c3ccc(F)cc3)noc2CNCCN2CCCC2)n1`, the IC50 was ≤ 1000 nM.

Take `C#CCNC(=O)c1csc(-c2c(-c3ccc(F)cc3)n[nH]c2C2CCN(C(=O)CO)CC2)n1`: the IC50 is ≤ 1000 nM.

On to `Cc1nc(-c2ccc(F)cc2)c(-c2nc(C(=O)NCCCCO)cs2)s1`, for which the half-maximal inhibitory concentration (IC50) was ≤ 1000 nM.

Regarding `CC(C)NC(=O)c1csc(-c2oc(CNC(=O)C3CCCO3)nc2-c2ccc(F)cc2)n1` (stereo not drawn), the IC50 was ≤ 1000 nM.

Consider `Cc1nc(-c2ccc(F)cc2)c(-c2nc(C(=O)NCCC(C)C)cs2)s1`, for which the half-maximal inhibitory concentration (IC50) was ≤ 1000 nM.

For `COc1ccccc1CC(=O)N1CCN(Cc2nc(-c3ccc(F)cc3)c(-c3nc(C(=O)NC(C)C)cs3)o2)CC1`, the IC50 is ≤ 1000 nM.

Turning to `CCCCOc1ccc(C(=O)N2CCC(c3[nH]nc(-c4ccc(F)cc4)c3-c3nc(C(=O)NC(C)C)cs3)CC2)cc1`, the IC50 is ≤ 1000 nM.

Consider `CC(C)NC(=O)c1csc(-c2oc(CN3CCN(C(=O)Cc4ccccc4O)CC3)nc2-c2ccc(F)cc2)n1`, for which the IC50 was ≤ 1000 nM.

For `CC(C)NC(=O)c1csc(-c2oc(CNC(=O)c3cccc(Cl)c3[N+](=O)[O-])nc2-c2ccc(F)cc2)n1`, the IC50 was ≤ 1000 nM.

For `Cc1nc(-c2ccc(F)cc2)c(-c2nc(C(=O)NCc3ccc(F)cc3F)cs2)s1`, the IC50 is ≤ 1000 nM.

For the compound `Cc1nc(-c2ccc(F)cc2)c(-c2nc(C(=O)NCc3ccccc3Cl)cs2)s1`, the half-maximal inhibitory concentration (IC50) was ≤ 1000 nM.

With `CC(=O)N1CCN(Cc2nc(-c3ccc(F)cc3)c(-c3nc(C(=O)NC(C)C)cs3)o2)CC1`, the IC50 was ≤ 1000 nM.

`Cc1nc(-c2ccc(F)cc2)c(-c2nc(C(=O)NCCCNC(=O)OC(C)(C)C)cs2)s1`: the IC50 is ≤ 1000 nM.

Regarding `CC(C)NC(=O)c1csc(-c2oc(CN3CCN(C(=O)C4CCc5ccccc54)CC3)nc2-c2ccc(F)cc2)n1` (stereo not drawn), the IC50 was ≤ 1000 nM.

As to `CC(C)NC(=O)c1csc(-c2c(-c3ccc(F)cc3)n[nH]c2C2CCN(C(=O)c3ccccn3)CC2)n1`, the half-maximal inhibitory concentration (IC50) is ≤ 1000 nM.

Regarding `CC(C)NC(=O)c1csc(-c2oc(CN3CCN(C(=O)C(Cl)(Cl)Cl)CC3)nc2-c2ccc(F)cc2)n1`, the IC50 is ≤ 1000 nM.

In the case of `C#CCNC(=O)c1csc(-c2c(-c3ccc(F)cc3)ncn2C)n1`, the IC50 is ≤ 1000 nM.

For the compound `CC(C)NC(=O)c1csc(-c2oc(CNC(=O)c3cc([N+](=O)[O-])ccc3O)nc2-c2ccc(F)cc2)n1`, the concentration for half-maximal inhibition (IC50) was ≤ 1000 nM.

As for `O=C(NCc1cccnc1)c1csc(-c2c(-c3ccc(F)cc3)n[nH]c2C2CCN(C(=O)CO)CC2)n1`, the IC50 is ≤ 1000 nM.

Consider `CC(C)NC(=O)c1csc(-c2oc(CN3CCN(C(=O)c4ccccc4C=O)CC3)nc2-c2ccc(F)cc2)n1`, for which the IC50 is ≤ 1000 nM.

Consider `CC(C)NC(=O)c1csc(-c2oc(CNC(=O)C3CCCCC3)nc2-c2ccc(F)cc2)n1`, for which the concentration for half-maximal inhibition (IC50) was ≤ 1000 nM.

In the case of `CC(C)NC(=O)c1csc(-c2oc(CNC(=O)Cc3c(F)cccc3F)nc2-c2ccc(F)cc2)n1`, the IC50 is ≤ 1000 nM.

Consider `CC(C)NC(=O)c1csc(-c2oc(CN3CCN(C(=O)C4CCCN4C(=O)OC(C)(C)C)CC3)nc2-c2ccc(F)cc2)n1` (stereo not drawn), for which the IC50 was ≤ 1000 nM.

For `C#CCNC(=O)c1csc(-c2[nH]c(CN3CCNCC3)nc2-c2ccc(F)cc2)n1`, the IC50 is ≤ 1000 nM.

Take `Cc1onc(-c2ccc(Cl)cc2)c1-c1ccn(C(=O)NC(C)CO)n1` (stereo not drawn): the half-maximal inhibitory concentration (IC50) is ≤ 1000 nM.

Regarding `COc1ccc([N+](=O)[O-])c(C(=O)NCc2nc(-c3ccc(F)cc3)c(-c3nc(C(=O)NC(C)C)cs3)o2)c1`, the IC50 is ≤ 1000 nM.

With `CC(C)NC(=O)c1csc(-c2c(-c3ccc(F)cc3)noc2CNC(=O)c2cccc3ccccc23)n1`, the IC50 was ≤ 1000 nM.

`COc1ccncc1NC(=O)c1csc(-c2sc(C)nc2-c2ccc(F)cc2)n1`: the concentration for half-maximal inhibition (IC50) was ≤ 1000 nM.

In the case of `CC(C)NC(=O)c1csc(-c2c(-c3ccc(F)cc3)n[nH]c2C2CCN(C(=O)c3cccnc3)CC2)n1`, the IC50 is ≤ 1000 nM.

On to `COCC(=O)N1CCC(c2[nH]nc(-c3ccc(F)cc3)c2-c2nc(C(=O)NC(C)C)cs2)CC1`, for which the IC50 was ≤ 1000 nM.

For `CC(C)NC(=O)c1csc(-c2oc(CNC(=O)Cc3cccc(O)c3)nc2-c2ccc(F)cc2)n1`, the IC50 was ≤ 1000 nM.

Turning to `CCC(C)NC(=O)n1ccc(-c2c(-c3ccc(Cl)cc3)noc2C)n1` (stereo not drawn), the IC50 is ≤ 1000 nM.

Regarding `CC(=O)NC(Cc1ccc(O)cc1)C(=O)NCc1nc(-c2ccc(F)cc2)c(-c2nc(C(=O)NC(C)C)cs2)o1` (stereo not drawn), the IC50 was ≤ 1000 nM.

Consider `CC(C)NC(=O)c1csc(-c2c(-c3ccc(F)cc3)n[nH]c2C2CCN(C(=O)C3CC(O)CN3C(=O)OC(C)(C)C)CC2)n1` (stereo not drawn), for which the IC50 is ≤ 1000 nM.

On to `C#CCNC(=O)c1csc(-c2c(-c3ccc(F)cc3)n[nH]c2C)n1`, for which the IC50 was ≤ 1000 nM.

On to `CC(C)NC(=O)c1csc(-c2oc(CNC(=O)C(C)(C)C)nc2-c2ccc(F)cc2)n1`, for which the IC50 is ≤ 1000 nM.

On to `COc1cc(OC)c(C(=O)N2CCN(Cc3nc(-c4ccc(F)cc4)c(-c4nc(C(=O)NC(C)C)cs4)o3)CC2)c(OC)c1`, for which the IC50 is ≤ 1000 nM.
